Where a name gives a salt, the structure may show the parent alone.
Columns and labels:
Met = Met (Homo sapiens, UniProt P08581); assay: Met autophosphorylation ELISA in PC-3 cells; assay type: cell-based; parameters: endogenous in cells; host or cells: PC-3 prostate cancer cells (ATCC #CRL-1435); conditions: Table 3 Cellular Activities, HGF-stimulated, phospho-Met ELISA, read-out: c-Met IC50
Procedure, shortened: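 Serum-starved (3 h) PC-3 cells pre-incubated 1 h with compound (8-point dose curve, 0.3% DMSO), then stimulated with 100 ng/mL recombinant human HGF for 10 min. Lysate phospho-Met (panTyr) measured by sandwich ELISA; IC50 from 4-parameter logistic fit, normalised to DMSO (100%) and reference-inhibitor (0%) controls.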

AXL = target: T1, AXL (Homo sapiens, UniProt P30530); assay: AXL autophosphorylation ELISA in A-172 cells; assay type: cell-based; conditions: Table 3 Cellular Activities, Gas6-stimulated, phospho-AXL ELISA
T1 construct: endogenous in cells; host or cells: A-172 glioblastoma cells (ATCC #CRL-1620)
T1 sequence (P30530 26-894): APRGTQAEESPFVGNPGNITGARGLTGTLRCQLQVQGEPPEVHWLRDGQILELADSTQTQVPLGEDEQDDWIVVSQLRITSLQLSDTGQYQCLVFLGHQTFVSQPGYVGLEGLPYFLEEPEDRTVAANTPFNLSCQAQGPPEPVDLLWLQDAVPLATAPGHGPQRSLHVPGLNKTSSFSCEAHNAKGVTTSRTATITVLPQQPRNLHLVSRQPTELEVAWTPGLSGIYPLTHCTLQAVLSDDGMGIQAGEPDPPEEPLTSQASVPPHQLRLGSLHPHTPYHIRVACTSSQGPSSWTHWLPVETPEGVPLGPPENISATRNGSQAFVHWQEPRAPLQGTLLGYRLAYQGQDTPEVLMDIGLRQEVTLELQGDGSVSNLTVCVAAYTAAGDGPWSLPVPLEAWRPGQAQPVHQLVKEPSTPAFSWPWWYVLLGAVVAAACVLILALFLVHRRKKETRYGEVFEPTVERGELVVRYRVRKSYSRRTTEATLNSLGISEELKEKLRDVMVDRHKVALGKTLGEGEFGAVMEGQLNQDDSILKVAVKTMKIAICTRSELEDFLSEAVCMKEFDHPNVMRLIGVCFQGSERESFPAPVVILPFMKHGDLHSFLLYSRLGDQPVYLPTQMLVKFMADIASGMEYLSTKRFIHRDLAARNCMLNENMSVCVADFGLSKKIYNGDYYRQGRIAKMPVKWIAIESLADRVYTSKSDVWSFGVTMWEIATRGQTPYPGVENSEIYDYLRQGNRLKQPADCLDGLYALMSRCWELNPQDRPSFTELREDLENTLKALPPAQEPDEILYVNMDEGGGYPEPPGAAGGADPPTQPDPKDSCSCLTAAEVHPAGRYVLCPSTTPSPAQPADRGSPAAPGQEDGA
Experimental: A-172 glioblastoma cells (ATCC #CRL-1620) were seeded at 2.5×10^5 cells/well onto 24-well plates (Greiner #662165), in DMEM (Thermo Fisher #11995-040) containing 10% FBS (Thermo Fisher #26140-079), 1% MEM NEAA (Thermo Fisher #11140-050), 1% GlutaMax (Thermo Fisher #35050-061), and 1% Penicillin Streptomycin (Thermo Fisher #15140-122). A-172 cells were incubated at 37° C., 5% CO2 for 24 h and then starved for 24 h in serum-free medium. Test compounds were serially diluted to produce an 8-point dose curve in fresh serum-free medium to a final concentration of 0.3% DMSO (vehicle) and added to the cells and incubated for 1 h. Cells were then stimulated with 1 μg/mL recombinant human Gas6 (R&D Systems #885-GSB-500) for 15 min, washed with cold PBS, and immediately lysed with 150 μL of cold 1× lysis buffer [20 mM Tris, 137 mM sodium chloride, 2 mM EDTA, 10% glycerol, 1% NP-40 alternative, 1 mM activated sodium orthovanadate, 1 mM PefaBloc SC (Sigma-Aldrich #11429868001), protease/phosphatase inhibitor tablet (Thermo Fisher #A32959)]. Lysates were collected and 100 μL/well added into the human phospho-AXL DuoSet IC ELISA (R&D Systems #DYC2228-2). Assay was performed according to manufacturer's instructions and sample phospho-AXL concentrations were extrapolated using human phospho-AXL control (R&D Systems #841645) as a standard. Positive control wells (100% activity) contained Gas6-stimulated, DMSO-treated cell lysates. Negative control wells (0% activity) contained Gas6-stimulated, reference inhibitor-treated cell lysates. IC50 values were calculated by nonlinear regression analysis using a 4-parameter logistic curve fit in ActivityBase XE (IDBS).

Sequence of Met (P08581 25-1390): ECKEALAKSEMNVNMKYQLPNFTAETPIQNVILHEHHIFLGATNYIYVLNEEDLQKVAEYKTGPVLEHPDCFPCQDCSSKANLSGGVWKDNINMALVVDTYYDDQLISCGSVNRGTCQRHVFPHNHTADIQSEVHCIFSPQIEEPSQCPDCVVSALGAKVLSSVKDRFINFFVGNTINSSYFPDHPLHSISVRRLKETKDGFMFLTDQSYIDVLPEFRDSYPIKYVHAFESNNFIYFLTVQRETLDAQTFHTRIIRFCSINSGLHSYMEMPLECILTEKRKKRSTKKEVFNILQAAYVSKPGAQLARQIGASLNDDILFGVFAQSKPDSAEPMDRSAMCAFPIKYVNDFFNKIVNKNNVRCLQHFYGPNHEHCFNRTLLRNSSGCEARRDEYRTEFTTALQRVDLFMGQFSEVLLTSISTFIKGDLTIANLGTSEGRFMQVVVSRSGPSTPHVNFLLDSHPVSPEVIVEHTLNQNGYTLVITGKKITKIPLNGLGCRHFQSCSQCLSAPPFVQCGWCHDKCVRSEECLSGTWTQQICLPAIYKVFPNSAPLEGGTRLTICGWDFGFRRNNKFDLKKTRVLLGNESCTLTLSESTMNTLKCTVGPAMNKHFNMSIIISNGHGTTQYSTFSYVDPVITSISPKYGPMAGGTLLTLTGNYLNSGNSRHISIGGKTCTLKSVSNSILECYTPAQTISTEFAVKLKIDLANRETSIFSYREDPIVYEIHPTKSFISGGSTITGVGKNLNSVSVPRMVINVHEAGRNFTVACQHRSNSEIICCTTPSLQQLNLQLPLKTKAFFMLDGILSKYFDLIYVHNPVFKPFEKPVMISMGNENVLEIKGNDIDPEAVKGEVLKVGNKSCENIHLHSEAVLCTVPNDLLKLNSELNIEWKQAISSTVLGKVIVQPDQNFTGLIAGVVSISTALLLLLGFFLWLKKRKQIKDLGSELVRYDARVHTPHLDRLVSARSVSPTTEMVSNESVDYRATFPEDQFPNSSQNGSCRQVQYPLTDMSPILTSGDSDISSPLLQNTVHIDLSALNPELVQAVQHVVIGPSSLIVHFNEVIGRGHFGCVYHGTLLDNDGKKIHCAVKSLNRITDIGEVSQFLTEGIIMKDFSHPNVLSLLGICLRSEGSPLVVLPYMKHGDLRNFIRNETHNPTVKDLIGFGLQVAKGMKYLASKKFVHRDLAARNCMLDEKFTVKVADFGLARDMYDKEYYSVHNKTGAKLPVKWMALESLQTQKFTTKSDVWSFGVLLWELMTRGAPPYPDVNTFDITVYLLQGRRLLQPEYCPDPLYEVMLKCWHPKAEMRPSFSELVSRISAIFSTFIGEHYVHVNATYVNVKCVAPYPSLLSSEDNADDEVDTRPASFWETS

Compound | IC50 (Met) [nM] | IC50 (AXL) [nM]
COc1cc2nccc(Oc3ccc(NC(=O)c4c5n(cc(-c6ccco6)c4=O)CCOC5)cc3F)c2nc1OC [Compound 297, N-[4-[(6,7-Dimethoxy-1,5-naphthyridin-4-yl)oxy]-3-fluorophenyl]-7-(furan-2-yl)-8-oxo-3,4-dihydro-1H-pyrido[2,1-c][1,4]oxazine-9-carboxamide] | ≤ 100 | ≤ 100
COc1cnc2c(Oc3ccc(NC(=O)c4cnc(C)c(-c5cccs5)c4O)cc3)ccnc2c1 [Compound 257, 4-Hydroxy-N-[4-[(7-methoxy-1,5-naphthyridin-4-yl)oxy]phenyl]-6-methyl-5-thiophen-2-ylpyridine-3-carboxamide] | ≤ 100 | ≤ 100
COc1cc2nccc(Oc3ccc(NC(=O)c4ccc(C)n(-c5ccnc(O)c5)c4=O)cc3F)c2nc1OC [Compound 232, N-[4-[(6,7-Dimethoxy-1,5-naphthyridin-4-yl)oxy]-3-fluorophenyl]-1-(2-hydroxypyridin-4-yl)-6-methyl-2-oxopyridine-3-carboxamide] | ≤ 100 | ≤ 100
COc1cnc2c(Oc3ccc(NC(=O)c4c(C)ncc(-c5ccccn5)c4O)cc3F)ccnc2c1 [Compound 70, N-[3-Fluoro-4-[(7-methoxy-1,5-naphthyridin-4-yl)oxy]phenyl]-4-hydroxy-2-methyl-5-pyridin-2-ylpyridine-3-carboxamide] | ≤ 100 | ≤ 100
COc1cc2nccc(Oc3ccc(NC(=O)c4c(C)nc(C)c(-c5ccc(F)cn5)c4O)cc3F)c2nc1OC [Compound 218, N-[4-[(6,7-Dimethoxy-1,5-naphthyridin-4-yl)oxy]-3-fluorophenyl]-5-(5-fluoropyridin-2-yl)-4-hydroxy-2,6-dimethylpyridine-3-carboxamide] | ≤ 100 | ≤ 100
COc1cnc2c(Oc3ccc(NC(=O)c4cn(CCF)c(C)c(-c5cc(C)cs5)c4=O)cc3F)ccnc2c1 [Compound 328, 1-(2-Fluoroethyl)-N-[3-fluoro-4-[(7-methoxy-1,5-naphthyridin-4-yl)oxy]phenyl]-6-methyl-5-(4-methylthiophen-2-yl)-4-oxopyridine-3-carboxamide] | ≤ 100 | ≤ 100
Cc1ccc(C(=O)Nc2ccc(Oc3ccnc4cccnc34)c(F)c2)c(=O)n1-c1ccc(F)cn1 [Compound 48, N-[3-Fluoro-4-(1,5-naphthyridin-4-yloxy)phenyl]-1-(5-fluoropyridin-2-yl)-6-methyl-2-oxopyridine-3-carboxamide] | ≤ 100 | ≤ 100
COc1cc2nccc(Oc3ccc(NC(=O)c4ncc(C)n(-c5ccc(F)cn5)c4=O)cc3F)c2nc1OC [Compound 219, N-[4-[(6,7-Dimethoxy-1,5-naphthyridin-4-yl)oxy]-3-fluorophenyl]-4-(5-fluoropyridin-2-yl)-5-methyl-3-oxopyrazine-2-carboxamide] | ≤ 100 | ≤ 100
COc1cc2nccc(Oc3ccc(NC(=O)c4cc(C(C)=O)c(C)n(-c5ccco5)c4=O)cc3)c2nc1OC [Compound 237, 5-Acetyl-N-[4-[(6,7-dimethoxy-1,5-naphthyridin-4-yl)oxy]phenyl]-1-(furan-2-yl)-6-methyl-2-oxopyridine-3-carboxamide] | 300 to 1000 | ≤ 100
COc1cnc2c(Oc3ccc(NC(=O)c4cc(C(C)=O)c(C)n(-c5ccoc5)c4=O)cc3F)ccnc2c1 [Compound 240, 5-Acetyl-N-[3-fluoro-4-[(7-methoxy-1,5-naphthyridin-4-yl)oxy]phenyl]-1-(furan-3-yl)-6-methyl-2-oxopyridine-3-carboxamide] | 300 to 1000 | ≤ 100
COc1cc2nccc(Oc3ccc(NC(=O)c4cnc(C)c(-c5ccco5)n4)cc3F)c2nc1OC [Compound 269, N-[4-[(6,7-Dimethoxy-1,5-naphthyridin-4-yl)oxy]-3-fluorophenyl]-6-(furan-2-yl)-5-methylpyrazine-2-carboxamide] | ≤ 100 | 300 to 1000
COc1cc2nccc(Oc3ccc(NC(=O)c4c(C)n(C)cc(-c5ccc(F)cn5)c4=O)cc3)c2nc1OC [Compound 72, N-[4-[(6,7-Dimethoxy-1,5-naphthyridin-4-yl)oxy]phenyl]-5-(5-fluoropyridin-2-yl)-1,2-dimethyl-4-oxopyridine-3-carboxamide] | ≤ 100 | ≤ 100
COc1cc2nccc(Oc3ccc(NC(=O)c4cccn(-c5ccnc(O)c5)c4=O)cc3F)c2nc1OC [Compound 248, N-[4-[(6,7-Dimethoxy-1,5-naphthyridin-4-yl)oxy]-3-fluorophenyl]-1-(2-hydroxypyridin-4-yl)-2-oxopyridine-3-carboxamide hydrochloride] | ≤ 100 | 300 to 1000
COc1cc2nccc(Oc3ccc(NC(=O)c4ccc(C)n(-c5cccnc5)c4=O)cc3F)c2nc1OC [Compound 222, N-[4-[(6,7-Dimethoxy-1,5-naphthyridin-4-yl)oxy]-3-fluorophenyl]-6-methyl-2-oxo-1-pyridin-3-ylpyridine-3-carboxamide] | ≤ 100 | ≤ 100
COCCOc1cc2nccc(Oc3ccc(NC(=O)c4ccc(C)n(-c5ccc(F)cn5)c4=O)cc3F)c2nc1OC [Compound 50, N-[3-Fluoro-4-[[6-methoxy-7-(2-methoxyethoxy)-1,5-naphthyridin-4-yl]oxy]phenyl]-1-(5-fluoropyridin-2-yl)-6-methyl-2-oxopyridine-3-carboxamide] | ≤ 100 | ≤ 100
COc1cc2nccc(Oc3ccc(NC(=O)c4c5n(cc(-c6cc(C)cs6)c4=O)CCOC5)cc3F)c2nc1OC [Compound 302, N-[4-[(6,7-Dimethoxy-1,5-naphthyridin-4-yl)oxy]-3-fluorophenyl]-7-(4-methylthiophen-2-yl)-8-oxo-3,4-dihydro-1H-pyrido[2,1-c][1,4]oxazine-9-carboxamide] | ≤ 100 | ≤ 100
COc1cc2nccc(Oc3ccc(NC(=O)c4c(C)ncc(-c5ccccn5)c4O)cc3F)c2nc1OC [Compound 69, N-[4-[(6,7-Dimethoxy-1,5-naphthyridin-4-yl)oxy]-3-fluorophenyl]-4-hydroxy-2-methyl-5-pyridin-2-ylpyridine-3-carboxamide] | ≤ 100 | ≤ 100
COc1cc2nccc(Oc3ccc(NC(=O)c4ccc(C)n(-c5ccc(F)c(C)n5)c4=O)cc3F)c2nc1OC [Compound 227, N-[4-[(6,7-Dimethoxy-1,5-naphthyridin-4-yl)oxy]-3-fluorophenyl]-1-(5-fluoro-6-methylpyridin-2-yl)-6-methyl-2-oxopyridine-3-carboxamide hydrochloride] | ≤ 100 | ≤ 100
COc1cc2nccc(Oc3ccc(NC(=O)c4cccn(-c5ccc(F)cn5)c4=O)cc3F)c2nc1OC [Compound 42, N-[4-[(6,7-Dimethoxy-1,5-naphthyridin-4-yl)oxy]-3-fluorophenyl]-1-(5-fluoropyridin-2-yl)-2-oxopyridine-3-carboxamide] | ≤ 100 | ≤ 100
